The values below come from patent publication US10562912B2 (C&C Research Laboratories, priority 2013, dated 2020).

Type in all cases: cell-based
One test has as its target T1, STAT3 (Homo sapiens, UniProt P40763).
T1 construct: plasmid pSTAT3-TA-luc), which contains a stably operating STAT3 promoter; endogenous in cells
Description: STAT3 reporter gene assay (luciferase), LNCaP stable cell line (pSTAT3-TA-luc), IL-6 stimulation. The gist of the method:
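Cytotoxicity was run on a duplicate plate with CellTiter-Glo, while the other plate gave luciferase read-outs from lysed LNCaP pSTAT3-TA-luc reporter cells. Cells were treated with graded compound concentrations plus IL-6 (10 ng/mL final) for 24–48 h in 3% DCC-FBS medium. Unstimulated and stimulated wells served as negative and positive controls.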

The subject of another test is LNCaP. Description: Cell growth inhibition assay, prostate cancer cell line LNCaP (medium with 10 ng/mL IL-6). Particulars: Homo sapiens, medium supplemented with 10 ng/mL of IL-6, 10,000 cells/well.
Another test relates to DU-145. The experiment in a line: Cell growth inhibition assay, prostate cancer cell line DU-145. The conditions noted are these: Homo sapiens, DU-145 prostate cancer cell line. The method in brief:
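Seed DU-145/HCT116 3,000 cells/well, SW626 5,000 cells/well; add compound dilution series; incubate 72–96 h, 37° C., 5% CO2; microscope check for precipitate; CellTiter-Glo, luminescence. Blank = no cells; vehicle = 0.1% DMSO.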

In another test the test system is HEL92.1.7. The experiment in a line: Cell growth inhibition assay, blood cancer cell line HEL92.1.7. The conditions noted are these: Homo sapiens, HEL 92.1.7, HEL92.1.7 blood cancer cell line. The method in brief:
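Cells were seeded at 3,000/well (HCT116, DU-145) or 5,000/well (SW626 and the others) and exposed to serial compound dilutions for 72 to 96 h at 37 °C under 5% CO2. Viability was read as CellTiter-Glo luminescence against 0.1% DMSO and cell-free wells.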

Another test deals with U266. The experiment in a line: Cell growth inhibition assay, blood cancer cell line U266. Particulars: Homo sapiens, U-266 blood cancer cell line. The protocol:
The inhibitory effects of the compounds of the present invention against the growth of cancer cells were evaluated as shown below. The cancer cell lines including stomach cancer cell line (AGS), breast cancer cell lines (MDA-MB-231, MDA-MB-468, and BT-549), prostate cancer cell lines (LNCaP and DU-145), colon cancer cell line (HCT116), ovarian cancer cell line (SW626), liver cancer cell line (Hep3B), kidney cancer cell line (ACHN), lung cancer cell line (NCI-H23) and blood cancer cell lines (HEL92.1.7 and U266) were cultured under the protocol provided by each supplier. A medium supplemented with 10 ng/mL of IL-6 was used for LNCaP, a prostate cancer cell line, when treated with a drug. Each type of cells to be used in experiments were sub-cultured in a 96-well plate by counting the exact number of cells using Tali™ Image-based Cytometer (Life Technologies). In a 96-well plate, AGS, HCT116, and DU-145 were employed with 3,000 cells/well; NCI-H23, SW626, Hep3B, ACHN, BT-549, MDA-MB-231, HEL92.1.7, and U266 were employed with 5,000 cells/well; and LNCaP and MDA-MB-468 were employed with 10,000 cells/well. The cells were treated with the compounds listed in Examples which were diluted in various concentrations. Upon completion of the compounds treatment, AGS, HCT116, SW626, DU145, NCI-H23, Hep3B, ACHN, BT-549, LNCaP, HEL92.1.7, and U266 cells were cultured at 37° C. under 5% CO2 for from 72 to 96 hours, and MDA-MB-231 and MDA-MB-468 cells were cultured at 37° C. in air for from 72 to 96 hours. Subsequently, the cells were observed under microscope and drug precipitation and particular findings were investigated and recorded. And then, the 96-well plate was placed at room temperature for 30 minutes, added with 20 μL/well of CellTiter-Glo solution (Cat No. G7573, Promega) and shaken for 10 minutes, followed by being subjected to the measurement using PHERAstar™ microplate reader (BMG LABTECH) according to the supplier's general luminometer protocol. Wells where only culture liquid added without cell plating were used as a negative control, whereas wells where culture liquid containing 0.1% DMSO instead of the compounds listed in Examples were used as a positive control.

Another test deals with AGS. The experiment in a line: Cell growth inhibition assay, stomach cancer cell line AGS. Particulars: Homo sapiens; AGS stomach cancer cell line, 3,000 cells/well.
Another test concerns MDA-MB-231. The experiment in a line: Cell growth inhibition assay, breast cancer cell line MDA-MB-231. Particulars: Homo sapiens; MDA-MB-231 breast cancer cell line, 5,000 cells/well.

T1 sequence (P40763 whole entry): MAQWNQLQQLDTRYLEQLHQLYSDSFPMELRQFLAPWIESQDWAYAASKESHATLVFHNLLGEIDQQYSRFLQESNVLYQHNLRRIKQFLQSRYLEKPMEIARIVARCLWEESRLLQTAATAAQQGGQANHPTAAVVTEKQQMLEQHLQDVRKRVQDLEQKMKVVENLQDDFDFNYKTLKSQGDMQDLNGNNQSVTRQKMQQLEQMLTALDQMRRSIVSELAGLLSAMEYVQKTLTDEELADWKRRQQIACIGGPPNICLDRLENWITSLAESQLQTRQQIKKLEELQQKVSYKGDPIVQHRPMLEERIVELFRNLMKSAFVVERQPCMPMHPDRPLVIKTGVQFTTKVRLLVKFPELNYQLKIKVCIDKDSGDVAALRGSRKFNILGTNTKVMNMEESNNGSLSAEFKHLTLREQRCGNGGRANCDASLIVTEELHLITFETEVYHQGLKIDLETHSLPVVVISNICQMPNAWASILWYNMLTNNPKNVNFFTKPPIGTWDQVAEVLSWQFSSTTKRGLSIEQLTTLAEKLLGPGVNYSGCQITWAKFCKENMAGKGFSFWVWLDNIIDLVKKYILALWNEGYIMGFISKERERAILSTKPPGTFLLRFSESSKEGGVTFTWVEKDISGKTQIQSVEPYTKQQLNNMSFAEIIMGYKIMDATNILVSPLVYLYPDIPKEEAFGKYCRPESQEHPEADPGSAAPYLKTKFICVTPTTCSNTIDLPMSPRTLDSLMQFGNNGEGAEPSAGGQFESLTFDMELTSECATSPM

Consider `COc1cc(OC(F)(F)F)cc(C(C)(C)c2cc(Br)cc(NC(=O)c3cc4cc(NS(C)(=O)=O)cnc4s3)c2)c1` [Example 56, N-(3-bromo-5-(2-(3-methoxy-5-(trifluoromethoxy)phenyl)propan-2-yl)phenyl)-5-(methylsulfonamido)thieno[2,3-b]pyridine-2-carboxamide], for which the IC50 came to 0.072 µM against STAT3; 0.25 µM in the test on LNCaP; 0.069 µM in the test on DU-145; 0.3 µM in the test with HEL92.1.7; 0.43 µM with U266.

For the molecule `COc1cc(OC(F)(F)F)cc(C(C)(C)c2cc(Cl)cc(NC(=O)c3cc4cc(NS(C)(=O)=O)cnc4s3)c2)c1` [Example 57, N-(3-chloro-5-(2-(3-methoxy-5-(trifluoromethoxy)phenyl)propan-2-yl)phenyl)-5-(methylsulfonamido)thieno[2,3-b]pyridine-2-carboxamide], the IC50 against STAT3 amounted to 0.067 µM; in the test with LNCaP, 0.16 µM; in the test with DU-145, 0.047 µM; in the test with HEL92.1.7, 0.18 µM; in the test with U266 it was 0.33 µM.

Turning to `CCOc1cc(OC(F)(F)F)cc(C(C)(C)c2cc(Cl)cc(NC(=O)c3cc4cc(NS(C)(=O)=O)ccc4s3)c2)c1` [Example 58, N-(3-chloro-5-(2-(3-ethoxy-5-(trifluoromethoxy)phenyl)propan-2-yl)phenyl)-5-(methylsulfonamido)benzo[b]thiophene-2-carboxamide], the IC50 at STAT3 was determined as 0.007 µM; in the test on LNCaP, 0.032 µM; in the test on DU-145, 0.006 µM; in the test with HEL92.1.7, 0.074 µM; in the test on U266, 0.005 µM.

`CCOc1cc(OC(F)(F)F)cc(C(C)(C)c2cc(Cl)cc(NC(=O)c3cc4ccc(NS(C)(=O)=O)cc4[nH]3)c2)c1` [Example 59, N-(3-chloro-5-(2-(3-ethoxy-5-(trifluoromethoxy)phenyl)propan-2-yl)phenyl)-6-(methylsulfonamido)-1H-indole-2-carboxamide]: the IC50 at STAT3 was 0.021 µM; with LNCaP, 0.12 µM; in the test on DU-145, 0.039 µM; in the test with HEL92.1.7 it was 0.42 µM; in the test with U266, 0.16 µM.

In the case of `CCOc1cc(OC(F)(F)F)cc(C(C)(C)c2cc(Br)cc(NC(=O)c3cc4cc(NS(C)(=O)=O)ncc4s3)c2)c1` [Example 61, N-(3-bromo-5-(2-(3-ethoxy-5-(trifluoromethoxy)phenyl)propan-2-yl)phenyl)-5-(methylsulfonamido)thieno[2,3-c]pyridine-2-carboxamide], the IC50 against STAT3 was determined as 0.066 µM; with LNCaP it was 0.13 µM; in the test on DU-145, 0.06 µM; with HEL92.1.7 it was 0.14 µM; with U266, 0.22 µM.

Take `CC(C)Oc1cc(OC(F)(F)F)cc(C(C)(C)c2cc(Cl)cc(NC(=O)c3cc4cc(NS(C)(=O)=O)cnc4s3)c2)c1` [Example 69, N-(3-chloro-5-(2-(3-isopropoxy-5-(trifluoromethoxy)phenyl)propan-2-yl)phenyl)-5-(methylsulfonamido)thieno[2,3-b]pyridine-2-carboxamide]: the IC50 against STAT3 turned out to be 0.052 µM; in the test on LNCaP, 0.058 µM; in the test with DU-145, 0.052 µM; in the test with HEL92.1.7 it was 0.09 µM; with U266 it was 0.14 µM.

Turning to `CC(C)Oc1cc(OC(F)(F)F)cc(C(C)(C)c2cc(Cl)cc(NC(=O)c3cc4nc(NS(C)(=O)=O)ccc4s3)c2)c1` [Example 70, N-(3-chloro-5-(2-(3-isopropoxy-5-(trifluoromethoxy)phenyl)propan-2-yl)phenyl)-5-(methylsulfonamido)thieno[3,2-b]pyridine-2-carboxamide], the IC50 at STAT3 came out at 0.068 µM; with LNCaP, 0.29 µM; in the test with DU-145, 0.12 µM; in the test on HEL92.1.7, 0.36 µM; in the test on U266, 0.46 µM.

In the case of `CS(=O)(=O)Nc1ccc2cc(C(=O)Nc3cc(OCC(F)F)cc(C(F)(F)c4cccc(C#N)c4)c3)[nH]c2c1` [Example 391, N-(3-((3-cyanophenyl)difluoromethyl)-5-(2,2-difluoroethoxy)phenyl)-6-(methylsulfonamido)-1H-indole-2-carboxamide], the IC50 against STAT3 is 2.4 µM; with AGS, 18.1 µM; with MDA-MB-231, 3.3 µM; in the test with LNCaP, more than 10 µM.

Consider `CS(=O)(=O)Nc1ccc2cc(C(=O)Nc3cc(OCC#N)cc(C(F)(F)c4cccc(C#N)c4)c3)[nH]c2c1` [Example 393, N-(3-(cyanomethoxy)-5-((3-cyanophenyl)difluoromethyl)phenyl)-6-(methylsulfonamido)-1H-indole-2-carboxamide], for which the IC50 was more than 10 µM against STAT3, 10.3 µM in the test on AGS, 5 µM with MDA-MB-231 and more than 10 µM in the test on LNCaP.

Turning to `CS(=O)(=O)Nc1ccc2cc(C(=O)Nc3cccc(S(=O)(=O)c4ccccc4)c3)[nH]c2c1` [Example 395, 6-(methylsulfonamido)-N-(3-(phenylsulfonyl)phenyl)-1H-indole-2-carboxamide], the IC50 at STAT3 was 2.1 µM; in the test on AGS, 20.6 µM; with MDA-MB-231, 4.2 µM; in the test on LNCaP it was more than 10 µM.

Turning to `CS(=O)(=O)Nc1ccc2cc(C(=O)Nc3cccc(S(=O)(=O)c4cccc(OC(F)(F)F)c4)c3)[nH]c2c1` [Example 396], the IC50 on STAT3 was 2.5 µM; with AGS, 11.8 µM; in the test on MDA-MB-231 it was 1.2 µM; with LNCaP, 8.9 µM.

Regarding `COc1cc(NC(=O)c2cc3ccc(NS(C)(=O)=O)cc3[nH]2)cc(S(=O)(=O)c2cccc(OC(F)(F)F)c2)c1` [Example 397, N-(3-methoxy-5-((3-(trifluoromethoxy)phenyl)sulfonyl)phenyl)-6-(methylsulfonamido)-1H-indole-2-carboxamide], the IC50 against STAT3 turned out to be 3 µM; with AGS it was 8.7 µM; in the test on MDA-MB-231, 2.8 µM; in the test on LNCaP, 5.8 µM.

In the case of `CS(=O)(=O)Nc1ccc2cc(C(=O)Nc3cc(C(F)(F)F)cc(S(=O)(=O)c4cccc(OC(F)(F)F)c4)c3)[nH]c2c1` [Example 398, 6-(methylsulfonamido)-N-(3-((3-(trifluoromethoxy)phenyl)sulfonyl)-5-(trifluoromethyl)phenyl)-1H-indole-2-carboxamide], the IC50 on STAT3 worked out at 1.6 µM; with AGS, 5.2 µM; with MDA-MB-231, 1.2 µM; with LNCaP it was 2.6 µM.

For `CS(=O)(=O)Nc1ccc2cc(C(=O)Nc3cc(C#N)cc(S(=O)(=O)c4cccc(OC(F)(F)F)c4)c3)[nH]c2c1` [Example 399, N-(3-cyano-5-((3-(trifluoromethoxy)phenyl)sulfonyl)phenyl)-6-(methylsulfonamido)-1H-indole-2-carboxamide], the IC50 on STAT3 was 2.8 µM; in the test with AGS it was 13.2 µM; with MDA-MB-231, 3.4 µM; in the test on LNCaP, more than 10 µM.

For the molecule `CC(C)COc1cc(NC(=O)c2cc3ccc(NS(C)(=O)=O)cc3[nH]2)cc(S(=O)(=O)c2cccc(OC(F)(F)F)c2)c1` [Example 400, N-(3-isobutoxy-5-((3-(trifluoromethoxy)phenyl)sulfonyl)phenyl)-6-(methylsulfonamido)-1H-indole-2-carboxamide], the IC50 on STAT3 is 3.2 µM; in the test on AGS, 14.9 µM; in the test on MDA-MB-231, 3.5 µM; in the test on LNCaP, more than 10 µM.

Turning to `CS(=O)(=O)Nc1ccc2cc(C(=O)Nc3cc(OCC(F)F)cc(S(=O)(=O)c4cccc(OC(F)(F)F)c4)c3)[nH]c2c1` [Example 401, N-(3-(2,2-difluoroethoxy)-5-((3-(trifluoromethoxy)phenyl)sulfonyl)phenyl)-6-(methylsulfonamido)-1H-indole-2-carboxamide], the IC50 was 4 µM on STAT3, 7.3 µM in the test with AGS, 2.5 µM in the test on MDA-MB-231 and 8 µM in the test on LNCaP.
